Data published in ChEMBL document CHEMBL5537177, “Discovery of Potent Antimalarial Type II Kinase Inhibitors with Selectivity over Human Kinases” (J Med Chem, 2024).
The source made the active and inactive calls. The calls are words filed in the database; no cut-off is given here.

How the values were obtained:
Plasmodium falciparum [1] = test: Resistance index, ratio of EC50 for multidrug-resistant Plasmodium falciparum Dd2 at ring stage infected in A+ erythrocytes to EC50 for drug-sensitive Plasmodium falciparum 3D7 at ring stage infected in A+ erythrocytes; assay type: organism-based; conditions: human
HepG2 = test: Cytotoxicity against human HepG2 cells assessed as reduction in cell viability incubated for 48 hrs by MTS assay; assay type: toxicity, cell-based; conditions: hepg2
[2] = Selectivity index, ratio of EC50 for human HepG2 cells to EC50 for multidrug-resistant Plasmodium falciparum Dd2 at ring stage infected in A+ erythrocytes; assay type: toxicity, cell-based; conditions: read-out: Ratio EC50
MCF7 = test: Cytotoxicity against human MCF7 cells assessed as reduction in cell viability incubated for 48 hrs by MTS assay; assay type: toxicity, cell-based; conditions: mcf7
[3] = Selectivity index, ratio of EC50 for human MCF7 cells to EC50 for multidrug-resistant Plasmodium falciparum Dd2 at ring stage infected in A+ erythrocytes; assay type: toxicity, cell-based; conditions: read-out: Ratio EC50
[4] = Metabolic stability in mouse liver microsomes assessed as intrinsic clearance; assay type: ADME, Liver cells
[5] = Cmax in mouse at 2 mg/kg, iv; assay type: ADME, organism-based; conditions: in vivo
[6] = AUC (last) in mouse at 2 mg/kg, iv; assay type: ADME, organism-based; conditions: in vivo
[7] = Volume of distribution at steady state in mouse at 2 mg/kg, iv; assay type: ADME, organism-based; conditions: in vivo, read-out: Vdss
[8] = Half life in mouse at 10 mg/kg, po; assay type: ADME, organism-based; conditions: in vivo
[9] = Cmax in mouse at 10 mg/kg, po; assay type: ADME, organism-based; conditions: in vivo
[10] = AUC (last) in mouse at 10 mg/kg, po; assay type: ADME, organism-based; conditions: in vivo
[11] = Clearance in mouse at 10 mg/kg, po; assay type: ADME, organism-based; conditions: in vivo
Plasmodium berghei [12] = test: Antimalarial activity against Plasmodium berghei sporozoites expressing luciferase infected in human HepG2-A16-CD81 cells assessed as reduction in parasite growth incubated for 18 hrs; assay type: functional, organism-based; conditions: HepG2-A16-CD81, 18 h
Plasmodium berghei [13] = test: Antimalarial activity against […] Plasmodium berghei sporozoites expressing GFP-Luc SMcon infected in Swiss Webster mouse assessed as decrease in recrudescence at 15 to 50 mg/kg, iv pretreated for 6 hrs followed by parasite infection measured after 90 days post-infection by SYBR Green I dye based flow cytometry; assay type: functional, organism-based; conditions: dose 15-50 mg/kg, time 90.25 day
Plasmodium berghei [14] = test: Antimalarial activity against blood-stage Plasmodium berghei sporozoites expressing GFP-Luc SMcon infected in Swiss Webster mouse assessed as reduction in parasitemia at 15 mg/kg, iv pre-infected with mouse RBC containing Plasmodium berghei sporozoites followed by compound administration measured for 2 to 16 days post-infection by SYBR Green I dye based flow cytometry; assay type: functional, organism-based; conditions: Erythrocyte, time 2-16 day
Plasmodium falciparum [15] = test: Parasiticidal activity against asynchronous blood-stage Plasmodium falciparum Dd2 at 10 times EC50 treated for 12 hrs followed by compound washout and measured for 4 days by flow cytometry; assay type: functional, organism-based
Plasmodium falciparum [16] = test: Antimalarial activity against synchronized Plasmodium falciparum Dd2 assessed as parasite growth inhibition at ring stage at 5 times EC50 treated 6 hrs post-invasion measured after 54 hrs post-invasion by Geimsa staining based microscopy; assay type: functional, organism-based; conditions: time 48.0 hrs
Plasmodium falciparum [17] = test: Antimalarial activity against synchronized Plasmodium falciparum Dd2 assessed as aberrant morphology of parasites at 5 times EC50 treated 42 hrs post-invasion measured after 54 hrs post-invasion by Geimsa staining based microscopy; assay type: functional, organism-based; conditions: time 12.0 hrs
Plasmodium falciparum [18] = test: (§1) Antimalarial activity against artemisinin-sensitive synchronized early ring stage Plasmodium falciparum IPC 5188 (MRA-1239) clinical isolate assessed as decrease in parasite survival at ring stage at 10 times EC50 treated for 6 hrs followed by compound removal measured after 72 hrs by geimsa staining based microscopy; assay type: functional, organism-based
Plasmodium falciparum [19] = test: as §1, with “artemisinin/piperaquine-resistant” for “artemisinin-sensitive”, “6261 (MRA-1284)” for “5188 (MRA-1239)”; assay type: functional, organism-based
Plasmodium falciparum [20] = test: as §1, with “artemisinin-resistant” for “artemisinin-sensitive”, “5202 (MRA-1240)” for “5188 (MRA-1239)”, “48” for “6”; assay type: functional, organism-based
Plasmodium falciparum [21] = test: (§2) Antimalarial activity against synchronized early ring stage Plasmodium falciparum 3D7 (MRA-152) clinical isolate assessed as decrease in parasite survival at ring stage at 10 times EC50 treated for 6 to 48 hrs followed by compound removal measured after 72 hrs by geimsa staining based microscopy; assay type: functional, organism-based
Plasmodium falciparum [22] = test: as §1, with “artemisinin/piperaquine-sensitive” for “artemisinin-sensitive”, “6 to 48” for “6”; assay type: functional, organism-based
Plasmodium falciparum [23] = test: as §2, with “against artemisinin-resistant/piperaquine-sensitive” for “against”, “IPC 5202 (MRA-1240)” for “3D7 (MRA-152)”; assay type: functional, organism-based
Plasmodium falciparum [24] = test: as §2, with “against artemisinin/piperaquine-resistant” for “against”, “IPC 6261 (MRA-1284)” for “3D7 (MRA-152)”; assay type: functional, organism-based
Plasmodium falciparum [25] = test: Antimalarial activity against patient-derived ring-stage Plasmodium falciparum clinical isolate from Patongo town of Uganda infected in O+ RBCs assessed as reduction in parasitemia incubated for 72 hrs by SYBR green I dye based analysis; assay type: functional, organism-based, RBC; conditions: Erythrocyte
Plasmodium falciparum [26] = test: Antimalarial activity against patient-derived ring-stage Plasmodium falciparum clinical isolate from Busiu town of Uganda infected in O+ RBCs assessed as reduction in parasitemia incubated for 72 hrs by SYBR green I dye based analysis; assay type: functional, organism-based, RBC; conditions: Erythrocyte
Plasmodium falciparum [27] = test: Antimalarial activity against Plasmodium falciparum harboring PI4K S1320L mutation assessed as reduction in parasitemia incubated for 72 hrs by SYBR green I dye based analysis; assay type: functional, organism-based
Plasmodium falciparum [28] = test: microbe, parasite or virus in culture; conditions: Dd2, 72 h
Description: Antiplasmodial activity against asynchronous Plasmodium falciparum Dd2 assessed as parasite growth reduction incubated for 72 hrs by SYBR Green I dye based analysis

## CCN1CCN(Cc2ccc(NC(=O)c3cc(Cl)cc(NC(=O)c4cncc(-c5cccs5)c4)c3)cc2C(F)(F)F)CC1
Plasmodium falciparum [1]
  Ratio EC50: 1.4
HepG2
  EC50: 2590 nM
[2]
  selectivity ratio: 45
MCF7
  EC50: 3510 nM
[3]
  selectivity ratio: 61
[4]
  intrinsic clearance: 9 µL/min/mg
[5]
  Cmax: 11100 ng/mL
[6]
  AUC(0-t): 6860 ng·h/mL
[7]
  Vd: 0.84 L/kg
[8]
  half-life: 5.71 h
[9]
  Cmax: 153 ng/mL
[10]
  AUC(0-t): 866 ng·h/mL
[11]
  CL/F: 109 mL/min/kg
Plasmodium berghei [12]
  EC50: 1770 nM
Plasmodium berghei [13]
  Activity: Active
Plasmodium berghei [14]
  Activity: Active
Plasmodium falciparum [15]
  Activity: Active
Plasmodium falciparum [16]
  inhibition: Active
Plasmodium falciparum [17]
  Activity: Active
Plasmodium falciparum [18]
  Activity: inactive
Plasmodium falciparum [19]
  Activity: inactive
Plasmodium falciparum [20]
  Activity: Active
Plasmodium falciparum [21]
  EC50: 61.1 nM
Plasmodium falciparum [22]
  EC50: 73.7 nM
Plasmodium falciparum [23]
  EC50: 72.2 nM
Plasmodium falciparum [24]
  EC50: 108 nM
Plasmodium falciparum [25]
  EC50: 9.2 nM
Plasmodium falciparum [26]
  EC50: 9.2 nM
Plasmodium falciparum [27]
  EC50: 59.2 nM
Plasmodium falciparum [28]
  EC50: 80 nM
